We go through 2 compounds from PubChem BioAssay (NCI).

Common to all, as to assay: NCI-60 cell line screen, 48 h
Test [1] relates to CCRF-CEM leukemia.
The test system of test [2] is DU-145 prostate.
The test system of test [3] is EKVX NSCLC.
The test system of test [4] is HOP-92 NSCLC.
Test [5] has as its system HS 578T breast.
Test [6] concerns HT29 colon.
The subject of test [7] is MDA-MB-231 breast.
Test [8] concerns NCI-H23 lung.
Test [9] concerns NCI/ADR-RES ovarian.
Test [10] deals with RPMI-8226 leukemia.
Test [11] has as its system RXF 393 renal.
Test [12] deals with SF-295 CNS.
Test [13] relates to SF-539 CNS.
The test system of test [14] is SK-MEL-28 melanoma.
The test system of test [15] is SK-OV-3 ovarian.
Test [16] concerns SNB-19 CNS.
Test [17] deals with SNB-75 CNS.
Test [18] deals with SW-620 colon.
The test system of test [19] is UACC-62 melanoma.
The test system of test [20] is UACC-257 melanoma.

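All cell lines were grown in 96-well plates and treated with compound for 48 hours. Definition used: TGI = concentration required for complete inhibition of growth.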

For `CCCC(=O)Nc1cc(/C=C/C(=O)N2CC(CCl)c3c2cc(O)c2[nH]cc(C)c32)n(C)c1` (stereo not drawn), the TGI in test [1] was 0.155 nM; in test [2], 0.817 nM; in test [3], 2.93 nM; in test [4], less than 0.025 nM; in test [5], 0.0635 nM; in test [6], 28.5 nM. The TGI in test [7] is 34.4 nM; in test [8], less than 0.025 nM; in test [9], 3.72 nM; in test [10], 1.54 nM; in test [11], less than 0.025 nM; in test [12] it was 0.0298 nM. The TGI was less than 0.025 nM in test [13]; greater than 250 nM in test [14]; 5.63 nM in test [15]; 6.08 nM in [16]; less than 0.025 nM in [17]; greater than 250 nM in test [18]. This compound also yielded a TGI in [19] of less than 0.025 nM.
In the case of `COc1cc(C(O)(CC#N)c2cc3c(cc2Br)OCO3)cc(OC)c1OC` (stereo not drawn), the TGI in test [1] was greater than 100000 nM; in [2], greater than 100000 nM; in [3] it was greater than 100000 nM; in test [4] it was greater than 100000 nM; in test [6], 54900 nM; in test [7], 54500 nM. The TGI is greater than 100000 nM in test [8]; greater than 100000 nM in test [9]; greater than 100000 nM in test [10]; greater than 100000 nM in test [11]; greater than 100000 nM in test [12]; 34900 nM in [13]. Moreover, the TGI in test [14] was greater than 100000 nM; in test [15], greater than 100000 nM; in [16], 76100 nM; in test [17], greater than 100000 nM; in test [18], greater than 100000 nM; in test [20] it was greater than 100000 nM. The compound further had a TGI in test [19] greater than 100000 nM.
